Experimental data reported in patent US10202339B2, “Therapeutic compounds and compositions” (AGIOS PHARMACEUTICALS, INC., priority 2012, dated 2019).

These compounds were tested against IDH2 R140Q (Homo sapiens (Human), UniProt P48735, R140Q) (assay: IDH2 R140Q enzymatic cofactor depletion assay (diaphorase/resazurin)). Conditions: IDH2 R140Q enzyme, one hour preincubation with compound, one hour reaction; read-out: Enz R140Q.
Assay type: biochemical
Experimental: The reaction was terminated by the addition of a second enzyme, diaphorase, and a corresponding substrate, resazurin. Diaphorase reduces resazurin to the highly fluorescent resorufin with the concomitant oxidation of NADPH to NADP, both halting the IDH2 reaction by depleting the available cofactor pool and facilitating quantitation of the amount of cofactor remaining after a specific time period through quantitative production of an easily detected fluorophore.
The compound was then incubated for one hour at room temperature with the enzyme; before starting the IDH2 reaction with the addition of 10 μl of substrate mix containing 50 μM NADPH and 6.3 mM α-KG in the buffer described above. After a further one hour of incubation at room temperature, the reaction was halted and the remaining NADPH measured through conversion of resazurin to resorufin by the addition of 25 μl Stop Mix (36 μg/ml diaphorase enzyme and 60 μM resazurin; in buffer). After one minute of incubation the plate was read on a plate reader at Ex544/Em590.

Sequence of IDH2 R140Q (P48735 40-452 R140Q): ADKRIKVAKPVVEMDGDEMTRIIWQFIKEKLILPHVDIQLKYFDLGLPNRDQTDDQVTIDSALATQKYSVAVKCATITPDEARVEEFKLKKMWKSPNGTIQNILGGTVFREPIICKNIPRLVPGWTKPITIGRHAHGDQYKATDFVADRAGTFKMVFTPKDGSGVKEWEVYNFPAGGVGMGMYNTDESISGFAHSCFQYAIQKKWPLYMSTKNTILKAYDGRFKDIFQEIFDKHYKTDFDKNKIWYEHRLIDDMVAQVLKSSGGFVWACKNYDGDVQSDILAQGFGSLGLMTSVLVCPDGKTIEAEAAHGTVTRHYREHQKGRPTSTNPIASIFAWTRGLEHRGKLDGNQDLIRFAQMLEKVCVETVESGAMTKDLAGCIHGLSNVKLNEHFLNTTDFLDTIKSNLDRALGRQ

Compound | IC50
Cc1ccnc(NC(=O)Nc2cc(S(=O)(=O)NCC(F)(F)F)ccc2-c2ccccc2)n1 [Compound 107, 2-(3-(4-methylpyrimidin-2-yl)ureido)-N-(2,2,2-trifluoroethyl)-[1,1′-biphenyl]-4-sulfonamide] | 1 to 10 µM
O=C(Nc1ccc(Cl)cc1)Nc1cc(S(=O)(=O)NCC(F)(F)F)ccc1-c1ccccc1 [Compound 37, 2-(3-(4-chlorophenyl)ureido)-N-(2,2,2-trifluoroethyl)-[1,1′-biphenyl]-4-sulfonamide] | 0.1 to 1 µM
O=C(Nc1cc(S(=O)(=O)Nc2ccccc2)ccc1-c1ccsc1)Nc1ccccc1C(F)(F)F [Compound 10, N-phenyl-4-(thiophen-3-yl)-3-(3-(2-(trifluoromethyl)phenyl)ureido)benzenesulfonamide] | 0.1 to 1 µM
COc1ccccc1NC(=O)Nc1cc(S(=O)(=O)Nc2ccccc2)ccc1-c1ccsc1 [Compound 6, 3-(3-(2-methoxyphenyl)ureido)-N-phenyl-4-(thiophen-3-yl)benzenesulfonamide] | 0.1 to 1 µM
O=C(Nc1cc(S(=O)(=O)NCC(F)(F)F)ccc1-c1ccccc1)NC1CCCCC1 [Compound 66, 2-(3-cyclohexylureido)-N-(2,2,2-trifluoroethyl)-[1,1′-biphenyl]-4-sulfonamide] | 0.1 to 1 µM
O=C(Nc1ncc(Cl)s1)Nc1cc(S(=O)(=O)NCC(F)(F)F)ccc1-c1ccccc1 [Compound 100, 2-(3-(5-chlorothiazol-2-yl)ureido)-N-(2,2,2-trifluoroethyl)-[1,1′-biphenyl]-4-sulfonamide] | 0.1 to 1 µM
C[S+]([O-])c1cccc(NC(=O)Nc2cc(S(=O)(=O)NCC(F)(F)F)ccc2-c2ccccc2)c1 (centres unmarked) [Compound 83, 2-(3-(3-(methylsulfinyl)phenyl)ureido)-N-(2,2,2-trifluoroethyl)-[1,1′-biphenyl]-4-sulfonamide] | 0.1 to 1 µM
O=C(Nc1ccc(F)c(C(F)(F)F)c1)Nc1cc(S(=O)(=O)NCC(F)(F)F)ccc1-c1ccccc1 [Compound 69, 2-(3-(4-fluoro-3-(trifluoromethyl)phenyl)ureido)-N-(2,2,2-trifluoroethyl)-[1,1′-biphenyl]-4-sulfonamide] | 0.1 to 1 µM
O=C(Nc1nc(C(F)(F)F)cs1)Nc1cc(S(=O)(=O)NCC(F)(F)F)ccc1-c1ccccc1 [Compound 103, N-(2,2,2-trifluoroethyl)-2-(3-(4-(trifluoromethyl)thiazol-2-yl)ureido)-[1,1′-biphenyl]-4-sulfonamide] | 0.1 to 1 µM
CC1CCC(NC(=O)Nc2cc(S(=O)(=O)Nc3ccccc3)ccc2-c2ccsc2)CC1 (centres unmarked) [Compound 24] | 1 to 10 µM
O=C(Nc1cccc(C(F)(F)F)c1)Nc1cc(S(=O)(=O)NCCO)ccc1-c1ccsc1 [Compound 120, N-(2-hydroxyethyl)-4-(thiophen-3-yl)-3-(3-(3-(trifluoromethyl)phenyl)ureido)benzenesulfonamide] | 0.1 to 1 µM
O=C(Nc1ccccc1Cl)Nc1cc(S(=O)(=O)NC2CC2)ccc1-c1ccsc1 [Compound 25, 3-(3-(2-chlorophenyl)ureido)-N-cyclopropyl-4-(thiophen-3-yl)benzenesulfonamide] | 0.1 to 1 µM
3′-methyl-N-morpholino-2-(3-(3-(trifluoromethyl)phenyl)ureido)-[1,1′-biphenyl]-4-sulfonamide [Compound 49] | 0.1 to 1 µM
O=C(Nc1cc(S(=O)(=O)NCC(F)(F)F)ccc1-c1ccccc1)Nc1cccnc1F [Compound 97, 2-(3-(2-fluoropyridin-3-yl)ureido)-N-(2,2,2-trifluoroethyl)-[1,1′-biphenyl]-4-sulfonamide] | 0.1 to 1 µM
2-(3-(1-methyl-1H-pyrazol-5-yl)ureido)-N-(2,2,2-trifluoroethyl)-[1,1′-biphenyl]-4-sulfonamide [Compound 77] | 0.1 to 1 µM
O=C(Nc1cncc(C(F)(F)F)c1)Nc1cc(S(=O)(=O)NCC(F)(F)F)ccc1-c1ccccc1 [Compound 94, N-(2,2,2-trifluoroethyl)-2-(3-(5-(trifluoromethyl)pyridin-3-yl)ureido)-[1,1′-biphenyl]-4-sulfonamide] | 0.1 to 1 µM
O=C(Nc1cccc(C(F)(F)F)c1)Nc1cc(S(=O)(=O)NC2COC2)ccc1-c1ccccc1 [Compound 45, N-(oxetan-3-yl)-2-(3-(3-(trifluoromethyl)phenyl)ureido)-[1,1′-biphenyl]-4-sulfonamide] | < 0.1 µM
CCCCNS(=O)(=O)c1ccc(-c2ccsc2)c(NC(=O)Nc2cccc(C(F)(F)F)c2)c1 [Compound 114, N-butyl-4-(thiophen-3-yl)-3-(3-(3-(trifluoromethyl)phenyl)ureido)benzenesulfonamide] | 0.1 to 1 µM
O=C(Nc1nccc(C(F)(F)F)n1)Nc1cc(S(=O)(=O)NCC(F)(F)F)ccc1-c1ccccc1 [Compound 106, N-(2,2,2-trifluoroethyl)-2-(3-(4-(trifluoromethyl)pyrimidin-2-yl)ureido)-[1,1′-biphenyl]-4-sulfonamide] | 0.1 to 1 µM
CC(C)n1ccc(NC(=O)Nc2cc(S(=O)(=O)NCC(F)(F)F)ccc2-c2ccccc2)n1 [Compound 92, 2-(3-(1-isopropyl-1H-pyrazol-3-yl)ureido)-N-(2,2,2-trifluoroethyl)-[1,1′-biphenyl]-4-sulfonamide] | 0.1 to 1 µM
O=C(Nc1ccc(F)c(Cl)c1)Nc1cc(S(=O)(=O)NCC(F)(F)F)ccc1-c1ccccc1 [Compound 40, 2-(3-(3-chloro-4-fluorophenyl)ureido)-N-(2,2,2-trifluoroethyl)-[1,1′-biphenyl]-4-sulfonamide] | 0.1 to 1 µM

Further lines, results first:

IC50 | Compound
0.1 to 1 µM | O=C(Nc1cccc(C(F)(F)F)c1)Nc1cc(S(=O)(=O)NCC(F)(F)F)ccc1C1CCCO1 (centres unmarked) [Compound 173, 4-(tetrahydrofuran-2-yl)-N-(2,2,2-trifluoroethyl)-3-(3-(3-(trifluoromethyl)phenyl)ureido)benzene sulfonamide]
0.1 to 1 µM | O=C(Nc1cccc(C(F)(F)F)c1)Nc1cc(S(=O)(=O)Nc2ccccc2)ccc1C1CCCCO1 (centres unmarked) [Compound 170, N-phenyl-4-(tetrahydro-2H-pyran-2-yl)-3-(3-(3-(trifluoromethyl)phenyl)ureido)benzenesulfonamide]
1 to 10 µM | CN(C)S(=O)(=O)c1ccc(-c2ccsc2)c(NC(=O)Nc2cccc(C(F)(F)F)c2)c1 [Compound 137]
0.1 to 1 µM | O=C(Nc1ncc(Cl)s1)Nc1cc(S(=O)(=O)NCC(F)(F)F)ccc1OCC1CC1 [Compound 187, 3-(3-(5-chlorothiazol-2-yl)ureido)-4-(cyclopropylmethoxy)-N-(2,2,2-trifluoroethyl)benzenesulfonamide]
0.1 to 1 µM | CCOc1ncc(S(=O)(=O)NC2COC2)cc1NC(=O)Nc1cccc(C(F)(F)F)c1 [Compound 199, 6-ethoxy-N-(oxetan-3-yl)-5-(3-(3-(trifluoromethyl)phenyl)ureido)pyridine-3-sulfonamide]
0.1 to 1 µM | CCc1ccc(S(=O)(=O)NCC(F)(F)F)cc1NC(=O)Nc1cccc(C(F)(F)F)c1 [Compound 339, 4-ethyl-N-(2,2,2-trifluoroethyl)-3-(3-(3-(trifluoromethyl)phenyl)ureido)benzenesulfonamide]
0.1 to 1 µM | O=C(Nc1cccc(C(F)(F)F)c1)Nc1cc(S(=O)(=O)NC2CC2)ccc1-n1ccnc1 [Compound 345, N-cyclopropyl-4-(1H-imidazol-1-yl)-3-(3-(3-(trifluoromethyl)phenyl)ureido)benzenesulfonamide]
0.1 to 1 µM | CCOc1ccc(S(=O)(=O)NC2COC2)cc1NC(=O)Nc1cccc(C(F)(F)F)c1 [Compound 180, 4-ethoxy-N-(oxetan-3-yl)-3-(3-(3-(trifluoromethyl)phenyl)ureido)benzenesulfonamide]
0.1 to 1 µM | CONS(=O)(=O)c1ccc(-c2ccsc2)c(NC(=O)Nc2cccc(C(F)(F)F)c2)c1 [Compound 138, N-methoxy-4-(thiophen-3-yl)-3-(3-(3-(trifluoromethyl)phenyl)ureido)benzenesulfonamide]
1 to 10 µM | O=C(Nc1cccc(C(F)(F)F)c1)Nc1cc(S(=O)(=O)NC2CC2)ccc1N1CCOCC1 [Compound 348, N-cyclopropyl-4-morpholino-3-(3-(3-(trifluoromethyl)phenyl)ureido)benzenesulfonamide]
1 to 10 µM | O=C(Nc1cccc(C(F)(F)F)c1)Nc1cc(S(=O)(=O)N2CCOCC2)cnc1N1CCOCC1 [Compound 356]
1 to 10 µM | O=C(Nc1cccc(C(F)(F)F)c1)Nc1cc(S(=O)(=O)N2CCOCC2)ccc1N1CCOCC1 [Compound 350]
0.1 to 1 µM | O=C(Nc1cccc(C(F)(F)F)c1)Nc1cc(S(=O)(=O)Nc2ccccc2)ccc1-c1nccs1 [Compound 359]
0.1 to 1 µM | O=C(Nc1ccc(F)c(C(F)(F)F)c1)Nc1cc(S(=O)(=O)NCC2CC2)ccc1C1CCCCO1 (centres unmarked) [Compound 164, N-(cyclopropylmethyl)-3-(3-(4-fluoro-3-(trifluoromethyl)phenyl)ureido)-4-(tetrahydro-2H-pyran-2-yl)benzenesulfonamide]
0.1 to 1 µM | O=C(Nc1cccc(C(F)(F)F)c1)Nc1cc(S(=O)(=O)NC2COC2)cnc1OCC1CC1 [Compound 198, 6-(cyclopropylmethoxy)-N-(oxetan-3-yl)-5-(3-(3-(trifluoromethyl)phenyl)ureido)pyridine-3-sulfonamide]
0.1 to 1 µM | O=C(Nc1cccc(C(F)(F)F)c1)Nc1cc(S(=O)(=O)NCC(F)(F)F)cnc1N1CCOCC1 [Compound 203, 6-morpholino-N-(2,2,2-trifluoroethyl)-5-(3-(3-(trifluoromethyl)phenyl)ureido)pyridine-3-sulfonamide]
1 to 10 µM | CN(c1ccccc1)S(=O)(=O)c1ccc(-c2ccsc2)c(NC(=O)Nc2cccc(C(F)(F)F)c2)c1 [Compound 143]
